Laboratory results from US7888386B2, “3-(phenoxyphenylmethyl)pyrrolidine compounds” (Theravance, Inc., priority 2008, dated 2011).
Where two headings read alike, the source gives them in different places.

Key:
[1] = target: T1, hNET (Homo sapiens, UniProt P23975); assay: hNET binding assay (Assay 1); conditions: read-out: NET pKi (converted)
T1 construct: expressed in transfected cells; host or cells: HEK-293 derived cell line, stably transfected; membrane preparation
Outline: (§1)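 Membranes from HEK-293 cells stably expressing human NET or SERT competed test compound against ^3H-nisoxetine (hNET) or ^3H-citalopram (hSERT). Buffer was 50 mM Tris-HCl pH 7.4, 120 mM NaCl, 5 mM KCl, 0.1% BSA and 400 μM ascorbic acid.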

[2] = target: T2, hSERT (Homo sapiens, UniProt P31645); assay: hSERT binding assay (Assay 1)
T2 construct: expressed in transfected cells; host or cells: HEK-293 derived cell line, stably transfected; membrane preparation
Outline: as §1

[3] = hNET binding, the tables list only compounds with NET pKi≧8
[4] = ratio of binding Ki at SERT to Ki at NET, the tables list only compounds with a ratio in the range 0.1-100
[5] = membranes of HEK-293 cells expressing hNET, 1.0 nM 3H-nisoxetine
[6] = ratio of binding Ki at hSERT to Ki at hNET, rounded off to the nearest tenth

T2 sequence (P31645 whole entry): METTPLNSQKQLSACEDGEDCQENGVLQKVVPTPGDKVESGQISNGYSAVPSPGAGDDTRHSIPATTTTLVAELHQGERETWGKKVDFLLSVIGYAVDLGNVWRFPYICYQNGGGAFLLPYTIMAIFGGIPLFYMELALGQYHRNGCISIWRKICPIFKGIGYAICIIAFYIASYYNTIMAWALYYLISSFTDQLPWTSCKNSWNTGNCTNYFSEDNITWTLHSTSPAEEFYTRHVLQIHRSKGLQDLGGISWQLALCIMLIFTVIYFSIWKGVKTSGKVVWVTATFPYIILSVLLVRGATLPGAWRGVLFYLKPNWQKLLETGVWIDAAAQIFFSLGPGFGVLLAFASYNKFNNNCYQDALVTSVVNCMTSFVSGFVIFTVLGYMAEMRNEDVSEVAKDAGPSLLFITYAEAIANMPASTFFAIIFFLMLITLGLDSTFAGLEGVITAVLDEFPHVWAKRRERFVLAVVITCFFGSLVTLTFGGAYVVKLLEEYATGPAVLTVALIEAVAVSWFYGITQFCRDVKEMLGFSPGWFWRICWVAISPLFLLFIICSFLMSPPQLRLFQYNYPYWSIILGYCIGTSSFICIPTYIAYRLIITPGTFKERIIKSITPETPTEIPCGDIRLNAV
T1 sequence (P23975 whole entry): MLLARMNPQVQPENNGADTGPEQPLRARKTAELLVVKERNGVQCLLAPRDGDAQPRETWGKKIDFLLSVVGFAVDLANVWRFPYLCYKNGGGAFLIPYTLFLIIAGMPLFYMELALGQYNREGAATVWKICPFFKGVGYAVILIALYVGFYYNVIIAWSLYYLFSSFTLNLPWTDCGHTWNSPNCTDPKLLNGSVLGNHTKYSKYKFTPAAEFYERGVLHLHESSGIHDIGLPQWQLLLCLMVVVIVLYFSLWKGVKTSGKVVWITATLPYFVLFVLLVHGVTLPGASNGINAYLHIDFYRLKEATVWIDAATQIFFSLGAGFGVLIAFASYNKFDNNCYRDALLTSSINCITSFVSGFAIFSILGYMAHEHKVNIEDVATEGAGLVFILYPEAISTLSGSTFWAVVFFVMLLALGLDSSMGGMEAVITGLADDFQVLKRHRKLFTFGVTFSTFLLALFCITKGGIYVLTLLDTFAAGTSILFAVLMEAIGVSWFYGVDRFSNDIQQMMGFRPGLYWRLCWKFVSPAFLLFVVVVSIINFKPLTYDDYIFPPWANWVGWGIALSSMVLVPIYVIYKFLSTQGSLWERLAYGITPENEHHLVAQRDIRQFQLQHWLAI

| Structure (SMILES) | Ki [1, 3] [nM] | SERT Ki/NET Ki [2, 4] | Ki [1, 5] [nM] | SERT Ki/NET Ki [2, 6] |
| --- | --- | --- | --- | --- |
| Fc1cc(F)cc([C@H](Oc2c(F)cc(F)cc2F)[C@H]2CCNC2)c1 [45-1] | 3.98 | 7.9 | – | – |
| NC(=O)c1cccc(C(Oc2c(F)cc(F)cc2F)C2CCNC2)c1 (stereo not shown) [45-5] | 7.94 | 3.2 | – | – |
| Fc1cc(F)c(Cl)c(OC(c2ccccc2)C2CCNC2)c1F (stereo not shown) [47-6] | 0.398 | 6.3 | – | – |
| Fc1cc(F)c(Cl)c(OC(c2ccccc2)C2CCNC2)c1F (stereo not shown) [47-7] | 0.501 | 0.4 | – | – |
| Fc1cc(F)cc(C(Oc2c(Cl)c(F)cc(F)c2Cl)C2CCNC2)c1 (stereo not shown) [48-1] | 0.501 | 2 | – | – |
| Fc1cc(F)cc([C@H](Oc2c(Cl)c(F)cc(F)c2Cl)[C@H]2CCNC2)c1 [48-2] | 0.398 | 10 | – | – |
| Fc1cc(F)cc([C@@H](Oc2c(Cl)c(F)cc(F)c2Cl)[C@@H]2CCNC2)c1 [48-3] | 0.251 | 2 | – | – |
| Fc1cc(F)c(Cl)c(OC(c2ccccc2Cl)C2CCNC2)c1Cl (stereo not shown) [48-4] | 7.94 | 0.2 | – | – |
| Fc1c(F)c(F)c(O[C@@H](c2ccccc2)[C@H]2CCNC2)c(F)c1F [49-1] | 3.98 | 2.5 | – | – |
| COC(=O)c1c(F)c(F)c(F)c(F)c1OC(c1ccccc1)C1CCNC1 (stereo not shown) [49-8] | 3.16 | 0.4 | – | – |
| Brc1ccccc1OC(c1ccccc1)C1CCNC1 (stereo not shown) [Compound 19-7] | – | – | 1 | 1 |
| Ic1ccccc1OC(c1ccccc1)C1CCNC1 (stereo not shown) [Compound 19-8] | – | – | 1 | 0.6 |
| CCc1ccccc1OC(c1ccccc1)C1CCNC1 (stereo not shown) [Compound 19-11] | – | – | 3.16 | 4 |
| CC(C)c1ccccc1OC(c1ccccc1)C1CCNC1 (stereo not shown) [Compound 19-12] | – | – | 2 | 16 |
| FC(F)(F)c1ccccc1OC(c1ccccc1)C1CCNC1 (stereo not shown) [Compound 19-13] | – | – | 2.51 | 7.9 |
| CC(C)Oc1ccccc1OC(c1ccccc1)C1CCNC1 (stereo not shown) [Compound 19-17] | – | – | 3.16 | 40 |
| FC(F)(F)Oc1ccccc1OC(c1ccccc1)C1CCNC1 (stereo not shown) [Compound 19-18] | – | – | 1.26 | 20 |
| c1ccc(-c2ccccc2OC(c2ccccc2)C2CCNC2)cc1 (stereo not shown) [Compound 19-19] | – | – | 2 | 32 |
| c1ccc(Cc2ccccc2OC(c2ccccc2)C2CCNC2)cc1 (stereo not shown) [Compound 19-20] | – | – | 7.94 | 1.6 |

| Structure (SMILES) | Ki [1, 3] [nM] | SERT Ki/NET Ki [2, 4] | Ki [1, 5] [nM] | SERT Ki/NET Ki [2, 6] |
| --- | --- | --- | --- | --- |
| c1ccc(Cc2ccccc2OC(c2ccccc2)C2CCNC2)cc1 (stereo not shown) [Compound 19-21] | – | – | 5.01 | 5 |
| CCC(=O)c1ccccc1OC(c1ccccc1)C1CCNC1 (stereo not shown) [Compound 19-26] | – | – | 3.98 | 50 |
| CCC(=O)c1ccccc1OC(c1ccccc1)C1CCNC1 (stereo not shown) [Compound 19-27] | – | – | 2 | 100 |
| CSc1ccccc1OC(c1ccccc1)C1CCNC1 (stereo not shown) [Compound 19-29] | – | – | 0.631 | 25 |
| CSc1ccccc1OC(c1ccccc1)C1CCNC1 (stereo not shown) [Compound 19-30] | – | – | 0.398 | 63 |
| Clc1ccccc1OC(c1ccccc1Cl)C1CCNC1 (stereo not shown) [Compound 20-1] | – | – | 3.16 | 0.5 |
| Fc1cccc(C(Oc2ccccc2Cl)C2CCNC2)c1 (stereo not shown) [Compound 20-4] | – | – | 2.51 | 0.63 |
| Clc1cccc(C(Oc2ccccc2Cl)C2CCNC2)c1 (stereo not shown) [Compound 20-5] | – | – | 2.51 | 1.6 |
| COc1cccc(C(Oc2ccccc2Cl)C2CCNC2)c1 (stereo not shown) [Compound 20-7] | – | – | 3.16 | 1.3 |
| COc1cccc(C(Oc2ccccc2C(C)C)C2CCNC2)c1 (stereo not shown) [Compound 20-10] | – | – | 5.01 | 2.5 |
| CC(C)c1ccccc1OC(c1cccc(Cl)c1)C1CCNC1 (stereo not shown) [Compound 20-12] | – | – | 5.01 | 7.9 |
| CC(C)c1ccccc1OC(c1cccc(F)c1)C1CCNC1 (stereo not shown) [Compound 20-13] | – | – | 5.01 | 10 |
| COc1ccccc1OC(c1cccc(F)c1)C1CCNC1 (stereo not shown) [Compound 20-15] | – | – | 5.01 | 4 |
| COc1ccccc1OC(c1ccccc1Cl)C1CCNC1 (stereo not shown) [Compound 20-16] | – | – | 1.26 | 4 |
| COc1ccccc1OC(c1ccccc1Cl)C1CCNC1 (stereo not shown) [Compound 20-17] | – | – | 1 | 13 |
| COc1ccccc1OC(c1ccc(Cl)cc1)C1CCNC1 (stereo not shown) [Compound 20-21] | – | – | 2 | 4 |
| COc1ccccc1OC(c1ccccc1OC(F)(F)F)C1CCNC1 (stereo not shown) [Compound 20-23] | – | – | 5.01 | 1.6 |
| COc1ccccc1OC(c1cccc(CO)c1)C1CCNC1 (stereo not shown) [Compound 20-26] | – | – | 3.98 | 10 |
| COc1ccccc1OC(c1cccc(C(N)=O)c1)C1CCNC1 (stereo not shown) [Compound 20-30] | – | – | 2.51 | 25 |

| Structure (SMILES) | Ki [1, 3] [nM] | SERT Ki/NET Ki [2, 4] | Ki [1, 5] [nM] | SERT Ki/NET Ki [2, 6] |
| --- | --- | --- | --- | --- |
| COc1ccccc1O[C@H](c1cc(F)cc(F)c1)[C@@H]1CCNC1 [Compound 20-34] | – | – | 3.98 | 1 |
| COc1ccccc1OC(c1cc(F)cc(Cl)c1)C1CCNC1 (stereo not shown) [Compound 20-35] | – | – | 0.631 | 16 |
| Fc1cccc(OC(c2ccccc2)C2CCNC2)c1 (stereo not shown) [Compound 21-1] | – | – | 3.98 | 1 |
| Brc1cccc(OC(c2ccccc2)C2CCNC2)c1 (stereo not shown) [Compound 21-5] | – | – | 3.16 | 0.2 |
| Ic1cccc(OC(c2ccccc2)C2CCNC2)c1 (stereo not shown) [Compound 21-6] | – | – | 3.98 | 0.2 |
| Cc1cccc(OC(c2ccccc2)C2CCNC2)c1 (stereo not shown) [Compound 21-7] | – | – | 3.98 | 0.5 |
| Cc1cccc(O[C@@H](c2ccccc2)[C@H]2CCNC2)c1 [Compound 21-8] | – | – | 6.31 | 2.5 |
| c1ccc(Oc2cccc(OC(c3ccccc3)C3CCNC3)c2)cc1 (stereo not shown) [Compound 21-13] | – | – | 1.26 | 1.3 |
| Clc1cccc(Oc2cccc(OC(c3ccccc3)C3CCNC3)c2)c1 (stereo not shown) [Compound 21-14] | – | – | 5.01 | 0.8 |
| Clc1ccc(Oc2cccc(OC(c3ccccc3)C3CCNC3)c2)cc1 (stereo not shown) [Compound 21-16] | – | – | 6.31 | 0.3 |
| Fc1cccc(C(Oc2cccc(Cl)c2)C2CCNC2)c1 (stereo not shown) [Compound 22-3] | – | – | 7.94 | 0.1 |
| Clc1cccc(OC(c2cccc(Cl)c2)C2CCNC2)c1 (stereo not shown) [Compound 22-4] | – | – | 7.94 | 0.2 |
| Cc1ccc(OC(c2ccccc2)C2CCNC2)cc1 (stereo not shown) [Compound 23-6] | – | – | 6.31 | 0.2 |
| c1ccc(COc2ccc(OC(c3ccccc3)C3CCNC3)cc2)cc1 (stereo not shown) [Compound 23-15] | – | – | 7.94 | 2 |
| Fc1cccc(OC(c2ccccc2)C2CCNC2)c1F (stereo not shown) [Compound 25-1] | – | – | 0.794 | 32 |
| Fc1cccc(O[C@H](c2ccccc2)[C@@H]2CCNC2)c1F [Compound 25-2] | – | – | 6.31 | 0.2 |
| Fc1c(Cl)cccc1OC(c1ccccc1)C1CCNC1 (stereo not shown) [Compound 25-3] | – | – | 0.794 | 0.5 |
| Fc1c(Cl)cccc1O[C@H](c1ccccc1)[C@@H]1CCNC1 [Compound 25-5] | – | – | 1.58 | 0.1 |
